No end group written: not given here.
Test system: P. aeruginosa PAO1
Assay: microbe, parasite or virus in culture
Experimental: The MIC tests were performed in triplicate using broth microdilution in accordance with Clinical and Laboratory Standards Institute (CLSI) recommendations (http://iacld.ir/DL/public/CLSI-2018-M100-S28.pdf). Briefly, drugs were two-fold diluted in MHB and mixed with an equal volume of bacterial suspensions containing approximately 1 × 10^6 CFU/mL in 96-well microliter plate. After 18 h incubation at 37 °C, the MIC values were defined as the lowest concentrations of antibiotics with no visible growth of bacteria. […] Otherwise, 1/4 MIC of the peptide was used in the combination. […] If needed, membrane compounds PG, PE, PC, CL or LPS, or membrane stabilizers MgCl2 or CaCl2, or efflux pumps inhibitor PAβN were added to the broth medium to clarify the effect of other substances on the synergy between peptide and antibiotics. All the tests were performed in triplicate.
The fractional inhibitory concentration (FIC) indices were calculated using the previously described formula FICI = FICa + FICb = MICac/MICa + MICbc/MICb. The FICI was interpreted according to EUCAST [65] as follows: synergistic, FICI≤0.5; additive, 0.5<FICI≤1; indifferent, 1<FICI<2; antagonistic, FICI ≥2. For the FICI calculations, twice the highest concentration tested was used in the cases where the MIC was not reached.

[1] = PAO1, peptide + azithromycin, twice the highest concentration used where MIC not reached
[2] = peptide alone, PAO1, broth microdilution in MHB, 18 h, 37 °C, triplicate

Row | Substance | FICI [1] | MICb: the MIC of the peptide [2] | MICb: the MIC of the peptide (PAO1, 18 h) | other results
1 | KIAKVALKALK [PEP10] | 1.125 | > 32 µM |  | 
2 | KRIVQRIKKWLR-NH2 [KR-12-a2] |  |  | 32 µM | MIC of the peptide (PAO1, 18 h): ≥ 32 µM
3 | LKGLKGLLKGL [ADP-1c] |  |  | > 32 µM | 
4 | LKGLKGLLKGLGEC [ADP-1a] |  |  | > 32 µM | 
5 | NGVQPKYK [PEP9] |  |  | > 32 µM | 
6 | RIVQRIKKWLR-NH2 [Peptide L-11] |  |  | 32 µM | MIC of the peptide (PAO1, 18 h): ≥ 32 µM
7 | RIVQWIKKWLR-NH2 [Peptide L-11-R5W] | 1.250 | 4 µM |  | 
8 | RIWVIWRR-NH2 [Bac8c] | 1.250 | 4 µM |  | 
9 | RLLFRKIRRLKR [EC5] | 0.188 | > 32 µM |  | FICI (PAO1, peptide + Azithromycin, higher peptide concentration line): <0.125; FICI (PAO1, peptide + Azithromycin, lower peptide concentration line): <0.281; FICI (PAO1, peptide + Clarithromycin, higher peptide concentration line): <0.313; FICI (PAO1, peptide + Clarithromycin, lower peptide concentration line): <0.281; FICI (PAO1, peptide + Erythromycin, higher peptide concentration line): <0.313; FICI (PAO1, peptide + Erythromycin, lower peptide concentration line): <0.281; FICI (PAO1, peptide + Spiramycin, higher peptide concentration line): 1.063; FICI (PAO1, peptide + Spiramycin, lower peptide concentration line): 1.031; FICI (PAO1, peptide + Telithromycin, higher peptide concentration line): <0.313; FICI (PAO1, peptide + Telithromycin, lower peptide concentration line): <0.531; MICb: the MIC of the peptide (S1 Table, peptide alone, PAO1): > 128 µM; MIC of the peptide (peptide alone, PAO1): ≥ 32 µM
10 | RRLFRRILRWL-NH2 [RW-BP100] | 1.250 | 8 µM |  | 
11 | VDKGSYLPRPTPPRPIYNRN-NH2 [Pyrrhocoricin] | 1.125 | > 32 µM |  | 
12 | VDKPPYLPRPRPPRRIYNR-NH2 [Oncocin] | 1.125 | > 32 µM |  | 

From paper PMC8445441, “Elucidating the mechanism by which synthetic helper peptides sensitize Pseudomonas aeruginosa to multiple antibiotics” (PLoS Pathogens, 2021)
